Experimental data published in patent US12285407B2, “Bis-indolylmethane derivatives and uses thereof” (The University of The West Indies, priority 2018, dated 2025).

Experiments:
Escherichia coli = assay: Checkerboard synergy (FICI) of antibiotics with SP-BIM; set-up: MIC SP-BIM 13 only / MIC in combination: Antibiotic: unit not given beside the values
Klebsiella pneumoniae = assay: as above; format: cell-based
Bacillus cereus = assay: Adjuvant broth microdilution (antibiotic MIC with SP-BIM at 50 μg/mL); format: cell-based; conditions: antibiotic alone, Table 9
Staphylococcus aureus = assay: Checkerboard synergy (FICI) of antibiotics with SP-BIM; format: cell-based; conditions: Staphylococcus aureus
Enterococcus faecalis = assay: Adjuvant broth microdilution (antibiotic MIC with SP-BIM at 50 μg/mL); format: cell-based; conditions: antibiotic alone
[1] = tested on: clinical antibiotic resistant isolates of Enterococcus faecium; assay: Checkerboard resistance breaking by SP-BIM 13; format: cell-based; conditions: for FIC compound / Rescue concentration of SP-BIM 13: SP-BIM 13 with the labelled antibiotic; for Interpretation / Σ FIC: antibiotic + SP-BIM 13; for MIC of antibiotic only: antibiotic alone; for FIC antibiotic: combination with SP-BIM 13; for MIC of antibiotic in combination: with SP-BIM 13 at rescue concentration
[2] = 24 h, read-out: MIC antibiotic only
[3] = SP-BIM 9 in combination with the labelled antibiotic
[4] = SP-BIM 13 in combination with the labelled antibiotic
[5] = antibiotic in combination with SP-BIM 9
[6] = antibiotic alone, SP-BIM 13 checkerboard
[7] = antibiotic in combination with SP-BIM 13

CN[C@H](CC(C)C)C(=O)N[C@H]1C(=O)N[C@@H](CC(N)=O)C(=O)N[C@H]2C(=O)N[C@H]3C(=O)N[C@H](C(=O)N[C@H](C(=O)O)c4cc(O)cc(O)c4-c4cc3ccc4O)[C@H](O)c3ccc(c(Cl)c3)Oc3cc2cc(c3O[C@@H]2O[C@H](CO)[C@@H](O)[C@H](O)[C@H]2O[C@H]2C[C@](C)(N)[C@H](O)[C@H](C)O2)Oc2ccc(cc2Cl)[C@H]1O [Vancomycin, vancomycin]
MIC (Escherichia coli; [2]): 125 µg/mL
MIC in combination: Antibiotic (Escherichia coli; MIC of the antibiotic in combination with SP-BIM 13): 125
FIC of SP-BIM 9 (Escherichia coli; [3]): 1
FIC of SP-BIM 13 (Escherichia coli; [4]): 1.0
Interpretation (Escherichia coli; antibiotic + SP-BIM 9): Indifferent (Indifferent: FICI>1.0-4.0)
Σ FIC (Escherichia coli; antibiotic + SP-BIM 9): <2.0
Interpretation (Escherichia coli; antibiotic + SP-BIM 13): Indifferent (Indifferent: FICI>1.0-4.0)
Σ FIC (Escherichia coli; antibiotic + SP-BIM 13): <2.0
MIC antibiotic only (Escherichia coli; antibiotic alone): 125
MIC in combination, Antibiotic (Escherichia coli; [5]): 125 µg/mL
FIC of antibiotic (Escherichia coli; combination with SP-BIM 13): 1.0
FIC of antibiotic (Escherichia coli; in combination with SP-BIM 9): 1
MIC (Klebsiella pneumoniae; [2]): 125 µg/mL
FIC of SP-BIM 9 (Klebsiella pneumoniae; [3]): 1
FIC of SP-BIM 13 (Klebsiella pneumoniae; [4]): 1.0
Interpretation (Klebsiella pneumoniae; antibiotic + SP-BIM 9): Indifferent (Indifferent: FICI>1.0-4.0)
Σ FIC (Klebsiella pneumoniae; antibiotic + SP-BIM 9): <2.0
Interpretation (Klebsiella pneumoniae; antibiotic + SP-BIM 13): Indifferent (Indifferent: FICI>1.0-4.0)
Σ FIC (Klebsiella pneumoniae; antibiotic + SP-BIM 13): <2.0
MIC antibiotic only (Klebsiella pneumoniae; [6]): 125 µg/mL
MIC in combination, Antibiotic (Klebsiella pneumoniae; [5]): 125 µg/mL
MIC in combination, Antibiotic (Klebsiella pneumoniae; [7]): 125 µg/mL
FIC of antibiotic (Klebsiella pneumoniae; in combination with SP-BIM 9): 1
FIC of antibiotic (Klebsiella pneumoniae; in combination with SP-BIM 13): 1.0
MIC of antibiotic, No Compound (Bacillus cereus): 4 µg/mL
MIC (Staphylococcus aureus; [2]): 2 µg/mL
FIC of SP-BIM 9 (Staphylococcus aureus; [3]): 0.02
FIC of SP-BIM 13 (Staphylococcus aureus; [4]): 0.3
Interpretation (Staphylococcus aureus; antibiotic + SP-BIM 9): Synergy (Synergy: FICI≤0.5)
Σ FIC (Staphylococcus aureus; antibiotic + SP-BIM 9): <0.27
Interpretation (Staphylococcus aureus; antibiotic + SP-BIM 13): Synergy (Synergy: FICI≤0.5)
Σ FIC (Staphylococcus aureus; antibiotic + SP-BIM 13): 0.4
MIC antibiotic only (Staphylococcus aureus; [6]): 2 µg/mL
MIC in combination, Antibiotic (Staphylococcus aureus; [5]): 0.5 µg/mL
MIC in combination, Antibiotic (Staphylococcus aureus; [7]): 0.25 µg/mL
FIC of antibiotic (Staphylococcus aureus; in combination with SP-BIM 9): 0.25
FIC of antibiotic (Staphylococcus aureus; in combination with SP-BIM 13): 0.1
MIC of antibiotic, No Compound (Enterococcus faecalis): 250 µg/mL
FIC compound ([1]; E. faecium strain 21024): 0.128
Rescue concentration of SP-BIM 13 ([1]; E. faecium strain 21024): 32 µg/mL
Interpretation ([1]; E. faecium strain 21024): Synergy (Synergy: FICI≤0.5)
Σ FIC ([1]; E. faecium strain 21024): <0.14
MIC of antibiotic only ([1]; E. faecium strain 21024): 63 µg/mL
FIC antibiotic ([1]; E. faecium strain 21024): 0.016
MIC of antibiotic in combination ([1]; E. faecium strain 21024): 1 µg/mL
FIC compound ([1]; E. faecium strain 22870): 0.004
Rescue concentration of SP-BIM 13 ([1]; E. faecium strain 22870): 1 µg/mL
Interpretation ([1]; E. faecium strain 22870): Synergy (Synergy: FICI≤0.5)
Σ FIC ([1]; E. faecium strain 22870): <0.07
MIC of antibiotic only ([1]; E. faecium strain 22870): 32 µg/mL
FIC antibiotic ([1]; E. faecium strain 22870): 0.063
MIC of antibiotic in combination ([1]; E. faecium strain 22870): 2 µg/mL
FIC compound ([1]; E. faecium strain 23227): 0.032
Rescue concentration of SP-BIM 13 ([1]; E. faecium strain 23227): 8 µg/mL
Interpretation ([1]; E. faecium strain 23227): Synergy (Synergy: FICI≤0.5)
Σ FIC ([1]; E. faecium strain 23227): <0.06
MIC of antibiotic only ([1]; E. faecium strain 23227): 32 µg/mL
FIC antibiotic ([1]; E. faecium strain 23227): 0.031
MIC of antibiotic in combination ([1]; E. faecium strain 23227): 1 µg/mL
FIC compound ([1]; E. faecium strain 23230): 0.064
Rescue concentration of SP-BIM 13 ([1]; E. faecium strain 23230): 16 µg/mL
Interpretation ([1]; E. faecium strain 23230): Synergy (Synergy: FICI≤0.5)
Σ FIC ([1]; E. faecium strain 23230): <0.13
MIC of antibiotic only ([1]; E. faecium strain 23230): 32 µg/mL
FIC antibiotic ([1]; E. faecium strain 23230): 0.063
MIC of antibiotic in combination ([1]; E. faecium strain 23230): 2 µg/mL
